In brackets after ≈: the same amount, converted by molar mass.
Assays:
Format in all cases: cell-based
[1] = tested on: Candida albican ATCC MYA-573; experiment: In vitro antifungal activity (MIC80), Candida albican ATCC MYA-573; conditions: Candida; Table 2, MYA 573; read-out: Minimal inhibitory concentration (MIC80)
Protocol: (§1) In vitro antifungal activities of the inventive antifungal compounds were evaluated using test strains including Candida albican (ATCC 90873, 204276, 62342, 64124, 64550, 96901, MYA-573, MYA-574, MYA-575, MYA-576, MYA-1003) and Aspergillus fumigatus (ATCC 16424). Test samples and positive control samples were prepared by dissolving the inventive compounds and comparative compounds, i.e., amphotericin B, fluconazole and itraconazole, in DMSO, respectively, and each successively diluted with medium to obtain test and positive control solutions having test compound concentrations of 0.125 μg/ml to a maximum concentration not generating turbidity. Minimal inhibitory concentration (MIC80) of each compound was determined as the lowest concentration of the test compounds required to reduce growth by 80% relative to a control strain not treated.
(§2) 1) Test strain: Candida albican ATCC 90873, 204276, 62342, 64124, 64550, 96901, MYA-573, MYA-574, MYA-575, MYA-576, MYA-1003, and Aspergillus fumigatus ATCC 16424 were commercially obtained from The American Type Culture Collection (ATCC) and subcultured in CHEMON Co. Ltd. (amphotericin B was commercially purchased from Sigma, and fluconazole and itraconazole were prepared according to methods described in British Patent No. 2,099,818; and U.S. Pat. No. 4,267,179, respectively).
(§3) 2) Medium and culture condition: Candida albican was cultured in Sabourad Dextrose Agar, YM Agar or Potato Dextrose Agar according to ATCC information at a temperature of 37° C., 35° C., 30° C. or 25° C. Aspergillus fumigatus was cultured in Malt Extract Agar or Potato Dextrose Agar at a temperature ranging from 24 to 27° C.
(§4) 3) Preparation of test samples: the inventive compounds and comparative compounds were each diluted with DMSO to obtain 1 to 2 ml of a test sample in a concentration of 100-folds of the determining maximum concentration (256 μg/ml).
(§5) The test samples were each successively diluted with RPMI 1640 to obtain test solutions having concentrations of […] in a 12×75 mm sterilized disposable culture tube. The final concentration of DMSO was adjusted to […] (v/v).
(§6) 5) Preparation of strain solution and inoculation
(§7) Candida albican strains were each subcultured in Sabourad Dextrose Agar, YM Agar or Potato Dextrose Agar medium at 35° C. for 2˜3 days. In the case of yeasts, a single colony was taken from prominent colonies and suspended in 0.85% sterile physiological saline solution and the turbidity of the suspension was adjusted to 80˜82% at 530 nm, and then diluted 50-fold with RPMI 1640 medium to 1.0×10^3˜5.0×10^3 CFU/ml. The turbidity of fungi was adjusted to 80˜82% and the suspension was diluted 50-fold to […]. Aspergillus fumigatus strains were subcultured in Malt Extract Agar for 7˜10 days, and a single colony was taken from prominent colonies and suspended in 0.85% sterile physiological saline solution and the suspension was adjusted to 0.108 at 530 nm, and then diluted 1000-fold with RPMI 1640 medium to 0.4×10^2˜5×10^4 CFU/ml. The turbidity of fungi was adjusted to 80˜82% and the suspension was diluted 50-fold to 0.4102˜0.5104 CFU/ml.
(§8) The strain solutions thus obtained were each seeded into a sterilized 96-well microplate, 0.1 ml of each test solution were added thereto, and […] of alamarblue was treated to each well (Biosource, #DAL1100). This procedure was repeated 2 times.
(§9) Minimal inhibitory concentration (MIC80) of each compound was determined as the lowest concentration of the test compounds required to reduce growth by 80% relative to a control strain not treated.

[2] = tested on: Candida albican ATCC MYA-575; experiment: In vitro antifungal activity (MIC80), Candida albican ATCC MYA-575; conditions: Candida; Table 2, MYA 575; read-out: Minimal inhibitory concentration (MIC80)
Protocol: as §1, §2, §3, §4, §5, §6, §7, §8, §9

[3] = tested on: Candida albican ATCC MYA-574; experiment: In vitro antifungal activity (MIC80), Candida albican ATCC MYA-574; conditions: Candida; Table 2, MYA 574; read-out: Minimal inhibitory concentration (MIC80)
Protocol: as §1, §2, §3, §4, §5, §6, §7, §8, §9

[4] = tested on: Candida albican ATCC 96901; experiment: In vitro antifungal activity (MIC80), Candida albican ATCC 96901; conditions: Candida, ATCC96901; Table 2, ATCC 96901; read-out: Minimal inhibitory concentration (MIC80)
Protocol: as §1, §2, §3, §4, §5, §6, §7, §8, §9

[5] = tested on: Candida albican ATCC 62342; experiment: In vitro antifungal activity (MIC80), Candida albican ATCC 62342; conditions: Candida, ATCC62342; Table 2, 62342; read-out: Minimal inhibitory concentration (MIC80)
Protocol: as §1, §2, §3, §4, §5, §6, §7, §8, §9

[6] = tested on: Candida albican ATCC 64124; experiment: In vitro antifungal activity (MIC80), Candida albican ATCC 64124; conditions: Candida, ATCC64124; Table 2, 64124; read-out: Minimal inhibitory concentration (MIC80)
Protocol: as §1, §2, §3, §4, §5, §6, §7, §8, §9

[7] = tested on: Candida albican ATCC MYA-1003; experiment: In vitro antifungal activity (MIC80), Candida albican ATCC MYA-1003; conditions: Candida; Table 2, MYA 1003; read-out: Minimal inhibitory concentration (MIC80)
Protocol: as §1, §2, §3, §4, §5, §6, §7, §8, §9

[8] = tested on: Candida albican ATCC MYA-576; experiment: In vitro antifungal activity (MIC80), Candida albican ATCC MYA-576; conditions: Candida; Table 2, MYA 576; read-out: Minimal inhibitory concentration (MIC80)
Protocol: as §1, §2, §3, §4, §5, §6, §7, §8, §9

[9] = tested on: Candida albican ATCC 90873; experiment: In vitro antifungal activity (MIC80), Candida albican ATCC 90873; conditions: Candida, ATCC90873; Table 2, ATCC 90873; read-out: Minimal inhibitory concentration (MIC80)
Protocol: as §1, §2, §3, §4, §5, §6, §7, §8, §9

[10] = tested on: Candida albican ATCC 64550; experiment: In vitro antifungal activity (MIC80), Candida albican ATCC 64550; conditions: Candida, ATCC64550; Table 2, 64550; read-out: Minimal inhibitory concentration (MIC80)
Protocol: as §1, §2, §3, §4, §5, §6, §7, §8, §9

Compound	MIC80 [1] [µg/mL]	MIC80 [2] [µg/mL]	MIC80 [3] [µg/mL]	MIC80 [4] [µg/mL]	MIC80 [5] [µg/mL]	MIC80 [6] [µg/mL]	MIC80 [7] [µg/mL]	MIC80 [8] [µg/mL]	MIC80 [9] [µg/mL]	MIC80 [10] [µg/mL]
C[C@@H](N1CCN(c2nc3cc(Cl)ccc3o2)CC1)[C@](O)(Cn1cncn1)c1ccc(F)cc1F [Example 5, (2R,3R)-3-(4-(5-chlorobenzooxazol-2-yl)piperazin-1-yl)-2-(2,4-difluorophenyl)-1-(1H-1,2,4-triazol-1-yl)butan-2-ol]	0.25 (≈ 0.511 µM)	0.125 (≈ 0.256 µM)	0.5 (≈ 1.02 µM)	2 (≈ 4.09 µM)	0.125 (≈ 0.256 µM)	2 (≈ 4.09 µM)	> 128	0.125 (≈ 0.256 µM)	0.125 (≈ 0.256 µM)	0.5 (≈ 1.02 µM)
C[C@@H](N1CCN(c2nc3ccc(N4CCCCC4)cc3s2)CC1)[C@](O)(Cn1cncn1)c1ccc(F)cc1F [Example 10, (2R,3R)-2-(2,4-difluorophenyl)-3-(4-(6-(piperidin-1-yl)benzothiazol-2-yl)piperazin-1-yl)-1-(1H-1,2,4-triazol-1-yl)butan-2-ol]	0.5 (≈ 0.903 µM)	0.125 (≈ 0.226 µM)	0.5 (≈ 0.903 µM)	4 (≈ 7.22 µM)	0.125 (≈ 0.226 µM)	4 (≈ 7.22 µM)	> 128	0.125 (≈ 0.226 µM)	0.125 (≈ 0.226 µM)	0.5 (≈ 0.903 µM)
C[C@@H](N1CCN(c2nc3ccc(N(C)CCN4CCOCC4)cc3s2)CC1)[C@](O)(Cn1cncn1)c1ccc(F)cc1F [Example 13, (2R,3R)-3-(4-(6-(N-methyl-N-(2-morpholinoethyl)amino)benzothiazol-2-yl)piperazin-1-yl)-2-(2,4-difluorophenyl)-1-(1H-1,2,4-triazol-1-yl)butan-2-ol]	0.25 (≈ 0.408 µM)	0.125 (≈ 0.204 µM)	16 (≈ 26.1 µM)	8 (≈ 13.1 µM)	0.25 (≈ 0.408 µM)	2 (≈ 3.26 µM)	32 (≈ 52.2 µM)	0.125 (≈ 0.204 µM)	0.125 (≈ 0.204 µM)	0.5 (≈ 0.816 µM)
C[C@@H](N1CCCN(c2nc3ccccc3o2)CC1)[C@](O)(Cn1cncn1)c1ccc(F)cc1F [Example 15, (2R,3R)-3-(4-(benzooxazol-2-yl)-1,4-diazepan-1-yl)-2-(2,4-difluorophenyl)-1-(1H-1,2,4-triazol-1-yl)butan-2-ol]	0.5 (≈ 1.07 µM)	0.125 (≈ 0.267 µM)	1 (≈ 2.13 µM)	16 (≈ 34.2 µM)	0.25 (≈ 0.534 µM)	8 (≈ 17.1 µM)	> 128	0.125 (≈ 0.267 µM)	0.125 (≈ 0.267 µM)	2 (≈ 4.27 µM)
C[C@@H](N1CCN(c2cccc(OCc3ccccc3)n2)CC1)[C@](O)(Cn1cncn1)c1ccc(F)cc1F [Example 20, (2R,3R)-3-(4-(6-(benzyloxy)pyridin-2-yl)piperazin-1-yl)-2-(2,4-difluorophenyl)-1-(1H-1,2,4-triazol-1-yl)butan-2-ol]	0.5 (≈ 0.96 µM)	0.25 (≈ 0.48 µM)	1 (≈ 1.92 µM)	2 (≈ 3.84 µM)	1 (≈ 1.92 µM)	8 (≈ 15.4 µM)	> 128	0.25 (≈ 0.48 µM)	0.125 (≈ 0.24 µM)	1 (≈ 1.92 µM)
C[C@@H](N1CCN(c2cccc(OCC3CC3)n2)CC1)[C@](O)(Cn1cncn1)c1ccc(F)cc1F [Example 21, (2R,3R)-3-(4-(6-(cyclopropylmethoxy)pyridin-2-yl)piperazin-1-yl)-2-(2,4-difluorophenyl)-1-(1H-1,2,4-triazol-1-yl)butan-2-ol]	8 (≈ 16.5 µM)	0.25 (≈ 0.516 µM)	128 (≈ 264 µM)	> 128	8 (≈ 16.5 µM)	> 128	> 128	0.25 (≈ 0.516 µM)	0.125 (≈ 0.258 µM)	8 (≈ 16.5 µM)
C[C@@H](N1CCN(c2cccc(OC3CCCC3)n2)CC1)[C@](O)(Cn1cncn1)c1ccc(F)cc1F [Example 22, (2R,3R)-3-(4-(6-(cyclopentyloxy)pyridin-2-yl)piperazin-1-yl)-2-(2,4-difluorophenyl)-1-(1H-1,2,4-triazol-1-yl)butan-2-ol]	32 (≈ 64.2 µM)	0.5 (≈ 1 µM)	> 128	> 128	128 (≈ 257 µM)	> 128	> 128	0.5 (≈ 1 µM)	0.5 (≈ 1 µM)	64 (≈ 128 µM)
CCCCOc1cccc(N2CCN([C@H](C)[C@](O)(Cn3cncn3)c3ccc(F)cc3F)CC2)n1 [Example 23, (2R,3R)-3-(4-(6-(butyloxy)pyridin-2-yl)piperazin-1-yl)-2-(2,4-difluorophenyl)-1-(1H-1,2,4-triazol-1-yl)butan-2-ol]	> 128	0.5 (≈ 1.03 µM)	> 128	> 128	> 128	> 128	> 128	0.5 (≈ 1.03 µM)	0.25 (≈ 0.514 µM)	> 128
CC(C)Oc1cccc(N2CCN([C@H](C)[C@](O)(Cn3cncn3)c3ccc(F)cc3F)CC2)n1 [Example 24, (2R,3R)-2-(2,4-difluorophenyl)-3-(4-(6-(isopropyloxy)pyridin-2-yl)piperazin-1-yl)-1-(1H-1,2,4-triazol-1-yl)butan-2-ol]	4 (≈ 8.46 µM)	0.5 (≈ 1.06 µM)	8 (≈ 16.9 µM)	> 128	8 (≈ 16.9 µM)	> 128	> 128	0.25 (≈ 0.529 µM)	0.125 (≈ 0.265 µM)	2 (≈ 4.23 µM)

Reference: patent US20100144712A1 (priority 2007, published 2010)
